According to BindingDB's records for doi:10.1021/jm970742b (University of Pennsylvania, 1998):

Biological target: Sodium-dependent dopamine transporter (Rattus norvegicus, UniProt P23977)
Test: In vitro binding affinity towards dopamine transporter in rat striatal homogenate with [125I]IPT as the radioligand

Sodium-dependent dopamine transporter, sequence (P23977 whole entry): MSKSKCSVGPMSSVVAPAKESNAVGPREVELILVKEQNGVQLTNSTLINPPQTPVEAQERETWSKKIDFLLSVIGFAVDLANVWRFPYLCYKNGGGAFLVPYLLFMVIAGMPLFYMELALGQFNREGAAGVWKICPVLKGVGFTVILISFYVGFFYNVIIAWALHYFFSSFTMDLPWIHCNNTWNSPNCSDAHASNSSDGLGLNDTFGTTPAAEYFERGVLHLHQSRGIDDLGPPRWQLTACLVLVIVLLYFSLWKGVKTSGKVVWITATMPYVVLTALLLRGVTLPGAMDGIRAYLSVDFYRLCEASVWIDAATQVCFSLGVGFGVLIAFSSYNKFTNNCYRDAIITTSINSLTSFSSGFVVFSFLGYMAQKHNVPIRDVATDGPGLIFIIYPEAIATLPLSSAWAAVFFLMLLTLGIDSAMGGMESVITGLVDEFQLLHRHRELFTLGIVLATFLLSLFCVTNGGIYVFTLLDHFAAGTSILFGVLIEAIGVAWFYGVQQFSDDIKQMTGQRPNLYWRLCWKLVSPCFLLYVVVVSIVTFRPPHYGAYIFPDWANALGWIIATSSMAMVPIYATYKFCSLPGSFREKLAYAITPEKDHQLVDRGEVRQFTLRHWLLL

SMILES | Ki
CN1C2CCC1[C@H](c1ccc(Cl)cc1)[C@H]2CN1CC[S][Re]2(=[O])[S]CC[N]2CC1 (stereo partly drawn) [2-[[2-[[[3-(4-chlorophenyl)-8-methyl-8-azabicyclo[3.2.1]oct-2-yl]methyl](2-mercaptoethyl)amino]ethyl]amino]ethanethiolato(3-)-oxo-[1R-(exo-exo)]-;2-{Oxo[N(R),N-bis(2-mercaptoethyl)ethylenediaminato]rhenium(V)methyl}-3-(4-chlorophenyl)tropane] | 13.9 nM
CN1C2CCC1[C@H](c1ccc(Cl)cc1)[C@@H]2CN1CC[S][Re]2(=[O])[S]CC[N]2CC1 (stereo partly drawn) [2-[[2-[[[3-(4-chlorophenyl)-8-methyl-8-azabicyclo[3.2.1]oct-2-yl]methyl](2-mercaptoethyl)amino]ethyl]amino]ethanethiolato(3-)-oxo-[1R-(exo-exo)]-;2-{Oxo[N(S),N-bis(2-mercaptoethyl)ethylenediaminato]rhenium(V)methyl}-3-(4-chlorophenyl)tropane] | 8.42 nM
